Organism: Rattus norvegicus
Assay: Open TG-GATES - Regimen: Daily Repeat
Assay type: toxicity, organism-based, Sprague-Dawley
Design: regimen Daily Repeat, gender Male, age 6 weeks
Details: in vivo, po, route gavage; for APTT / Bas / Eos / Fbg / Hb / Ht / Lym / MCHC / MCV / Mono / Neu / PT / Plat / RBC / Ret / WBC: tissue Blood; for KIDNEY_L / KIDNEY_R / KIDNEY_TOTAL: tissue Kidney; for LIVER: tissue Liver; for ALP / ALT / AST / CRE / DBIL / GLC / IP / K / LDH / Na / PL / RALB / TBIL / TC / TG / TP / gamma-GTP: tissue Plasma
[1] = 300 mg/kg, 72 h, dose level Middle, time 3 day
[2] = 300 mg/kg, […], dose level Middle, time 7 day
[3] = 300 mg/kg, […], dose level Middle, time 14 day
[4] = 300 mg/kg, […], dose level Middle, time 28 day
[5] = 1000 mg/kg, 72 h, dose level High, time 3 day
[6] = 1000 mg/kg, […], dose level High, time 7 day
[7] = 1000 mg/kg, […], dose level High, time 14 day
[8] = 1000 mg/kg, […], dose level High, time 28 day

SMILES: C#C[C@]1(O)CC[C@H]2[C@@H]3CCC4=Cc5oncc5C[C@]4(C)[C@H]3CC[C@@]21C [DANAZOL]
- TERMINAL_BW [1]: 238.4 g
- APTT [1]: 22.7 s
- Bas [1]: 0%
- Eos [1]: 1%
- Fbg [1]: 355.8 mg/dL
- Hb [1]: 13.5 g/dL
- Ht [1]: 40.3%
- Lym [1]: 80%
- MCHC [1]: 33.4%
- MCV [1]: 62.4 fL
- Mono [1]: 2.4%
- Neu [1]: 15.8%
- PT [1]: 16.5 s
- Plat [1]: 115.8 x10_4/uL
- RBC [1]: 645.6 x10_4/ul
- Ret [1]: 6.6%
- WBC [1]: 87.1 x10_2/uL
- KIDNEY_L [1]: 1.1 g
- KIDNEY_R [1]: 1.1 g
- KIDNEY_TOTAL [1]: 2.2 g
- LIVER [1]: 12.4 g
- ALP [1]: 1638.6 IU/L
- ALT [1]: 45.2 IU/L
- AST [1]: 65.8 IU/L
- CRE [1]: 0.2 mg/dL
- DBIL [1]: 0 mg/dL
- GLC [1]: 180.2 mg/dL
- IP [1]: 7.9 mg/dL
- K [1]: 4.5 meq/L
- LDH [1]: 169.6 IU/L
- Na [1]: 141.6 meq/L
- PL [1]: 129.6 mg/dL
- RALB [1]: 3.1 g/dL
- TBIL [1]: 0.004 mg/dL
- TC [1]: 50.2 mg/dL
- TG [1]: 172.2 mg/dL
- TP [1]: 5.7 g/dL
- gamma-GTP [1]: 2 IU/L
- TERMINAL_BW [2]: 263.9 g
- TERMINAL_BW [3]: 303.4 g
- TERMINAL_BW [4]: 343.4 g
- APTT [2]: 25.7 s
- Bas [2]: 0%
- Eos [2]: 0.8%
- Fbg [2]: 360 mg/dL
- Hb [2]: 13.9 g/dL
- Ht [2]: 41.1%
- Lym [2]: 81.8%
- MCHC [2]: 33.8%
- MCV [2]: 61.8 fL
- Mono [2]: 2%
- Neu [2]: 14.8%
- PT [2]: 16.2 s
- Plat [2]: 127.5 x10_4/uL
- RBC [2]: 666.4 x10_4/ul
- Ret [2]: 5.3%
- WBC [2]: 104.2 x10_2/uL
- APTT [3]: 26.4 s
- Bas [3]: 0%
- Eos [3]: 0.8%
- Fbg [3]: 334.2 mg/dL
- Hb [3]: 14.6 g/dL
- Ht [3]: 41.2%
- Lym [3]: 85.2%
- MCHC [3]: 35.4%
- MCV [3]: 58.8 fL
- Mono [3]: 2.4%
- Neu [3]: 10.8%
- PT [3]: 17.3 s
- Plat [3]: 124.6 x10_4/uL
- RBC [3]: 701.4 x10_4/ul
- Ret [3]: 2.8%
- WBC [3]: 113.8 x10_2/uL
- APTT [4]: 26.1 s
- Bas [4]: 0%
- Eos [4]: 0.6%
- Fbg [4]: 310.8 mg/dL
- Hb [4]: 14.5 g/dL
- Ht [4]: 42.2%
- Lym [4]: 84.2%
- MCHC [4]: 34.5%
- MCV [4]: 54.1 fL
- Mono [4]: 1.8%
- Neu [4]: 12.4%
- PT [4]: 17.9 s
- Plat [4]: 108.2 x10_4/uL
- RBC [4]: 779.4 x10_4/ul
- Ret [4]: 2%
- WBC [4]: 79.9 x10_2/uL
- KIDNEY_L [2]: 1.2 g
- KIDNEY_R [2]: 1.2 g
- KIDNEY_TOTAL [2]: 2.4 g
- KIDNEY_L [3]: 1.3 g
- KIDNEY_R [3]: 1.3 g
- KIDNEY_TOTAL [3]: 2.6 g
- KIDNEY_L [4]: 1.4 g
- KIDNEY_R [4]: 1.3 g
- KIDNEY_TOTAL [4]: 2.7 g
- LIVER [2]: 13.6 g
- LIVER [3]: 14.9 g
- LIVER [4]: 14.9 g
- ALP [2]: 1469 IU/L
- ALT [2]: 42.6 IU/L
- AST [2]: 64 IU/L
- CRE [2]: 0.2 mg/dL
- DBIL [2]: 0 mg/dL
- GLC [2]: 181.6 mg/dL
- IP [2]: 6.5 mg/dL
- K [2]: 4.3 meq/L
- LDH [2]: 134.6 IU/L
- Na [2]: 142.2 meq/L
- PL [2]: 132.2 mg/dL
- RALB [2]: 3.1 g/dL
- TBIL [2]: 0.002 mg/dL
- TC [2]: 49.4 mg/dL
- TG [2]: 210.2 mg/dL
- TP [2]: 5.8 g/dL
- gamma-GTP [2]: 1.8 IU/L
- ALP [3]: 1443.4 IU/L
- ALT [3]: 35.6 IU/L
- AST [3]: 58 IU/L
- CRE [3]: 0.2 mg/dL
- DBIL [3]: 0 mg/dL
- GLC [3]: 170 mg/dL
- IP [3]: 6.8 mg/dL
- K [3]: 4.3 meq/L
- LDH [3]: 134.8 IU/L
- Na [3]: 141.8 meq/L
- PL [3]: 115 mg/dL
- RALB [3]: 3.1 g/dL
- TBIL [3]: 0 mg/dL
- TC [3]: 35.6 mg/dL
- TG [3]: 240.6 mg/dL
- TP [3]: 6 g/dL
- gamma-GTP [3]: 2.4 IU/L
- ALP [4]: 1201.6 IU/L
- ALT [4]: 35.6 IU/L
- AST [4]: 57.6 IU/L
- CRE [4]: 0.2 mg/dL
- DBIL [4]: 0 mg/dL
- GLC [4]: 178 mg/dL
- IP [4]: 5.8 mg/dL
- K [4]: 4 meq/L
- LDH [4]: 121.6 IU/L
- Na [4]: 142.2 meq/L
- PL [4]: 130.4 mg/dL
- RALB [4]: 3.1 g/dL
- TBIL [4]: 0.002 mg/dL
- TC [4]: 41.4 mg/dL
- TG [4]: 280.2 mg/dL
- TP [4]: 6.2 g/dL
- gamma-GTP [4]: 2.8 IU/L
- TERMINAL_BW [5]: 232.8 g
- APTT [5]: 23.9 s
- Bas [5]: 0%
- Eos [5]: 1%
- Fbg [5]: 355.8 mg/dL
- Hb [5]: 13.1 g/dL
- Ht [5]: 39.4%
- Lym [5]: 83%
- MCHC [5]: 33.3%
- MCV [5]: 63 fL
- Mono [5]: 3%
- Neu [5]: 12.2%
- PT [5]: 16.6 s
- Plat [5]: 122.2 x10_4/uL
- RBC [5]: 626 x10_4/ul
- Ret [5]: 5.3%
- WBC [5]: 100.4 x10_2/uL
- KIDNEY_L [5]: 1.1 g
- KIDNEY_R [5]: 1.1 g
- KIDNEY_TOTAL [5]: 2.2 g
- LIVER [5]: 13.1 g
- ALP [5]: 1658.2 IU/L
- ALT [5]: 39.2 IU/L
- AST [5]: 60.6 IU/L
- CRE [5]: 0.2 mg/dL
- DBIL [5]: 0 mg/dL
- GLC [5]: 173.4 mg/dL
- IP [5]: 7.6 mg/dL
- K [5]: 4.5 meq/L
- LDH [5]: 153.4 IU/L
- Na [5]: 141 meq/L
- PL [5]: 116.2 mg/dL
- RALB [5]: 3.1 g/dL
- TBIL [5]: 0 mg/dL
- TC [5]: 47.2 mg/dL
- TG [5]: 132.6 mg/dL
- TP [5]: 5.8 g/dL
- gamma-GTP [5]: 2 IU/L
- TERMINAL_BW [6]: 261.4 g
- TERMINAL_BW [7]: 289.1 g
- TERMINAL_BW [8]: 372.5 g
- APTT [6]: 25.7 s
- Bas [6]: 0%
- Eos [6]: 0.8%
- Fbg [6]: 351.6 mg/dL
- Hb [6]: 14 g/dL
- Ht [6]: 41.5%
- Lym [6]: 86.4%
- MCHC [6]: 33.8%
- MCV [6]: 60 fL
- Mono [6]: 1.6%
- Neu [6]: 10.4%
- PT [6]: 16.7 s
- Plat [6]: 143.9 x10_4/uL
- RBC [6]: 693.2 x10_4/ul
- Ret [6]: 4.9%
- WBC [6]: 103.6 x10_2/uL
- APTT [7]: 28.9 s
- Bas [7]: 0%
- Eos [7]: 0.8%
- Fbg [7]: 345.6 mg/dL
- Hb [7]: 14.8 g/dL
- Ht [7]: 42.1%
- Lym [7]: 86.8%
- MCHC [7]: 35.2%
- MCV [7]: 57.3 fL
- Mono [7]: 2.2%
- Neu [7]: 9.6%
- PT [7]: 17.1 s
- Plat [7]: 119 x10_4/uL
- RBC [7]: 734.6 x10_4/ul
- Ret [7]: 2.4%
- WBC [7]: 81.2 x10_2/uL
- APTT [8]: 27.7 s
- Bas [8]: 0%
- Eos [8]: 1.2%
- Fbg [8]: 320.6 mg/dL
- Hb [8]: 14.3 g/dL
- Ht [8]: 41.9%
- Lym [8]: 79.4%
- MCHC [8]: 34.1%
- MCV [8]: 56.1 fL
- Mono [8]: 3%
- Neu [8]: 15.8%
- PT [8]: 18.2 s
- Plat [8]: 112.3 x10_4/uL
- RBC [8]: 749 x10_4/ul
- Ret [8]: 2.2%
- WBC [8]: 69.9 x10_2/uL
- KIDNEY_L [6]: 1.1 g
- KIDNEY_R [6]: 1.2 g
- KIDNEY_TOTAL [6]: 2.3 g
- KIDNEY_L [7]: 1.3 g
- KIDNEY_R [7]: 1.4 g
- KIDNEY_TOTAL [7]: 2.7 g
- KIDNEY_L [8]: 1.5 g
- KIDNEY_R [8]: 1.5 g
- KIDNEY_TOTAL [8]: 3 g
- LIVER [6]: 13.2 g
- LIVER [7]: 15 g
- LIVER [8]: 18 g
- ALP [6]: 1593 IU/L
- ALT [6]: 36.4 IU/L
- AST [6]: 61.2 IU/L
- CRE [6]: 0.1 mg/dL
- DBIL [6]: 0 mg/dL
- GLC [6]: 184 mg/dL
- IP [6]: 7 mg/dL
- K [6]: 4.3 meq/L
- LDH [6]: 136.6 IU/L
- Na [6]: 142.4 meq/L
- PL [6]: 121 mg/dL
- RALB [6]: 3.2 g/dL
- TBIL [6]: 0 mg/dL
- TC [6]: 44.2 mg/dL
- TG [6]: 200.6 mg/dL
- TP [6]: 5.8 g/dL
- gamma-GTP [6]: 2.4 IU/L
- ALP [7]: 1541.2 IU/L
- ALT [7]: 37.6 IU/L
- AST [7]: 58.6 IU/L
- CRE [7]: 0.2 mg/dL
- DBIL [7]: 0 mg/dL
- GLC [7]: 174.8 mg/dL
- IP [7]: 7.2 mg/dL
- K [7]: 4.3 meq/L
- LDH [7]: 133.8 IU/L
- Na [7]: 142.2 meq/L
- PL [7]: 124.2 mg/dL
- RALB [7]: 3.1 g/dL
- TBIL [7]: 0 mg/dL
- TC [7]: 38.6 mg/dL
- TG [7]: 255.8 mg/dL
- TP [7]: 6.2 g/dL
- gamma-GTP [7]: 2.8 IU/L
- ALP [8]: 1028.8 IU/L
- ALT [8]: 37.6 IU/L
- AST [8]: 55.8 IU/L
- CRE [8]: 0.2 mg/dL
- DBIL [8]: 0 mg/dL
- GLC [8]: 177.8 mg/dL
- IP [8]: 6.6 mg/dL
- K [8]: 4.2 meq/L
- LDH [8]: 122.6 IU/L
- Na [8]: 141.6 meq/L
- PL [8]: 133.6 mg/dL
- RALB [8]: 3.2 g/dL
- TBIL [8]: 0 mg/dL
- TC [8]: 41.4 mg/dL
- TG [8]: 275.4 mg/dL
- TP [8]: 6.4 g/dL
- gamma-GTP [8]: 3.6 IU/L
